Among the data in PubChem BioAssay (NCI) are TGI and GI50 values, retold here.

“And” between values parts separate entries of the source, which are not always exact repeats. Equal entries are not always repeated.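 A five-concentration, 48-hour dose response in 96-well plates underlies each endpoint, interpolated linearly between surrounding concentrations. Here, GI50 denotes the concentration required for 50% inhibition of growth. TGI marks complete inhibition of growth.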 A value given as a limit tells only on which side of the number the result lay.

What all share (experiment): NCI-60 cell line screen, 48 h
The test system of assay [1] is COLO 205 colon.
Assay [2] has as its system UO-31 renal.
The test system of assay [3] is OVCAR-3 ovarian.
The test system of assay [4] is MALME-3M melanoma.
For assay [5], the system named is A549 NSCLC.
Assay [6] concerns CCRF-CEM leukemia.
The subject of assay [7] is EKVX NSCLC.
Assay [8] relates to MDA-MB-231 breast.
In assay [9] the test system is T-47D breast.
Assay [10] relates to 786-0 renal.

Take `COc1cc(/C=C2\N=C(c3ccccc3)N(c3ccc(C(=O)c4ccccc4)cc3N3C(=O)/C(=C/c4cc(OC)c(OC)c(OC)c4)N=C3c3ccccc3)C2=O)cc(OC)c1OC`: the TGI was 30 µM in [1]; 40.3 µM in [2]; 16.6 µM in [3]; 41.3 µM in assay [4]; 71.6 µM in [5]; 39.8 µM in [6]. Also, the TGI in assay [7] is 76.7 µM; in assay [8] it was 54 µM; in [9], 26.4 µM; in assay [10] it was greater than 100 µM.
Take `C=C1C(=O)O[C@H]2[C@@H](O)[C@H](C)CCC/C(C)=C/CC[C@@]3(C)O[C@@H]3C[C@@H]12`: the TGI is 12.3 µM in assay [1]; 18.2 µM in [2]; 31.1 µM in assay [3]; 30.6 µM in assay [4]; greater than 60.9 µM in assay [5]; 11.7 µM in assay [6]. Further, the TGI in assay [7] worked out at 19 µM; in [8], 31.7 µM; in assay [9] it was 12.3 µM; in assay [10], 14.9 µM.
`CCOc1cc(C=Nc2ccc(Oc3ccc(Cl)cc3)c(Cl)c2)ccc1O`: the TGI was 44.6 µM in assay [1]; 30.3 µM in assay [2]; 85.7 µM in assay [3]; 52.6 µM in assay [4]; greater than 100 µM in assay [5]; 50.8 µM in assay [6]. Also, the TGI in assay [7] was 41.3 µM; in assay [8], 42.1 µM; in assay [9] it was greater than 100 µM; in assay [10], 34 µM.
On to `NC(Cc1ccccc1)C(=O)O` (stereo not drawn), for which the TGI in assay [1], in assay [2], in [3], in [4], in assay [5] and in assay [6] was greater than 100 µM each time. In addition, the TGI in [7], in assay [8], in assay [9] and in assay [10] was greater than 100 µM each time.
In the case of `C[C@@H](CC(O)C(O)C(C)(C)O)C1CCC23CC12CCC1[C@@]2(C)CCC(=O)C(C)(C)C2CC(OC2OC(CO)C(O)C(O)C2O)[C@]13C` (stereo partly drawn), the TGI in assay [1], in assay [2], in [3], in [4], in [5] and in assay [6] was greater than 10 µM throughout. The TGI in assay [7], in assay [8], in assay [9] and in assay [10] was greater than 10 µM each time.
On to `Cn1c(=O)n2n(c1=O)C1C(=CC2)C2C=CC1n1c(=O)n(C)c(=O)n12` (stereo not drawn), for which the TGI in assay [1], in [2], in assay [3], in [4], in assay [5] and in [6] was greater than 100 µM in each case. Besides, the TGI in [7], in [8], in assay [9] and in assay [10] was greater than 100 µM each time.
On to `O=C(NC(Cc1c[nH]c2ccccc12)C(=O)O)/C(=C/c1ccccc1)NC(=O)c1ccccc1` (stereo not drawn), for which the TGI in assay [1], in assay [2], in assay [3], in assay [4], in assay [5] and in assay [6] was greater than 100 µM each time. The TGI in assay [7], in assay [8], in assay [9] and in assay [10] was greater than 100 µM throughout.
For the compound `O=C(n1c(=O)n(-c2ccc([N+](=O)[O-])cc2)c(=O)n1C(=O)C(Cl)(Cl)Cl)C(Cl)(Cl)Cl`, the TGI in assay [1], in assay [2], in [3], in assay [4], in assay [5] and in assay [6] was greater than 100 µM throughout. Besides, the TGI in [7], in assay [8], in assay [9] and in assay [10] was greater than 100 µM in each case.
For the compound `Clc1cccc(Cl)c1C1ON=C(c2ccccc2)N1C12CC3CC(CC(C3)C1)C2` (stereo not drawn), the TGI in assay [1] was 30.5 µM; in [2] it was greater than 100 µM; in [3] it was 74.7 µM; in [4], 47 µM; in [5] it was greater than 100 µM; in assay [6] it was 56.5 µM. The TGI in assay [7], in assay [8], in assay [9] and in assay [10] was greater than 100 µM each time.
In the case of `CCCCCCCCCCCOCCC1C(C(C)OCCN2CCCC2)OC2OC(C)(C)OC21` (stereo not drawn), the TGI is 3.88 µM in assay [1]; 6.51 µM in [2]; 12.3 µM in assay [3]; 3.08 µM in assay [4]; 11.5 µM in assay [5]; greater than 23.9 µM in assay [6]. The TGI in [7] worked out at 10.8 µM; in assay [8] it was 3.97 µM; in assay [9], 4.8 µM; in [10], 5.88 µM.
Take `CC1=C(C(=O)OC(C)C)C(c2cccc([N+](=O)[O-])c2)C(C(=O)OC(CO[N+](=O)[O-])CO[N+](=O)[O-])=C(C)N1` (stereo not drawn): the TGI in [1] is 8.39 µM; in assay [2], greater than 50.1 µM; in [3], greater than 22.1 µM; in [4], greater than 100 µM; in [5], greater than 100 µM; in [6], greater than 20.1 µM. In addition, the TGI is greater than 27.7 µM in assay [7], greater than 20.7 µM in [8], greater than 100 µM in [9] and greater than 100 µM in assay [10].
With `Cc1nc(-c2ccc(Cl)cc2)cn2c1nc1ccccc12`, the TGI in [1] is greater than 100 µM; in assay [2], greater than 100 µM; in assay [3], greater than 100 µM; in [4], greater than 100 µM; in assay [5], greater than 100 µM; in assay [6] it was greater than 31.6 µM. Moreover, the TGI in assay [7] is greater than 100 µM; in assay [8], greater than 100 µM; in assay [9], greater than 21.4 µM; in assay [10], greater than 100 µM.
Consider `NC(=S)NS(=O)(=O)c1ccc(Cl)cc1Cl`, for which the TGI in assay [1], in [2], in assay [3], in assay [4], in [5] and in [6] was greater than 100 µM in each case. Further, the TGI in assay [7], in assay [8], in assay [9] and in assay [10] was greater than 100 µM throughout.
`Cn1cnc([N+](=O)[O-])c1Sc1nncc2[nH]cnc12`: the TGI in assay [1], in assay [2], in assay [3], in [4], in assay [5] and in [6] was greater than 100 µM in each case. Besides, the TGI in assay [7], in assay [8], in [9] and in assay [10] was greater than 100 µM each time.
Turning to `Nc1ncnc2c(C3OC(CO)C(O)C3O)c[nH]c12` (stereo not drawn), the GI50 in [1] was 0.0193 µM; in assay [3], 0.0116 µM; in [4], 0.011 µM; in assay [7], less than 0.0171 µM. In addition, the TGI in [2] was 0.118 µM and 0.258 µM; in assay [3] it was 0.0342 µM and 0.124 µM; in assay [4] it was 0.0868 µM and 0.0571 µM; in [5], 0.0775 µM and 0.434 µM; in assay [6] it was 0.0988 µM and < 0.0135 µM; in assay [7], 0.415 µM and 0.274 µM. In addition, the TGI in assay [8] is greater than 100 µM; in [9], 0.0758 µM and 0.0275 µM; in assay [10], 16.4 µM.
Consider `NCCCN1CCN(CCCNc2ccc3ncn4c5ccccc5c(=O)c2c34)CC1`, for which the TGI in assay [1] is 2.66 µM; in [2], 22.5 µM; in assay [3], greater than 25 µM; in assay [4], 6.27 µM; in [5], greater than 25 µM; in [6], greater than 25 µM. Further, the TGI in assay [7] was found to be 9.03 µM; in assay [8], 3.71 µM; in assay [9], 12.1 µM; in assay [10], 24 µM.
For `CCCS(=O)OC1C(C2COC(C)(C)O2)OC2OC(C)(C)OC21` (stereo not drawn), the TGI in [1] was 27.2 µM; in assay [2], 28.3 µM; in assay [3], 29.3 µM; in assay [4], 18 µM; in [5], 49.6 µM; in assay [6], 21.5 µM. Further, the TGI in [7] is 32 µM; in assay [8], 32.6 µM; in [9], greater than 69.6 µM; in assay [10], 27.8 µM.
